Test results reported in article PMC6097146, “Drug‐Bearing Supramolecular MMP Inhibitor Nanofibers for Inhibition of Metastasis and Growth of Liver Cancer” (Advanced Science, 2018).
≈ marks a conversion by molar mass, not a printed value. Where no end group is shown, it is not given here.

Key:
SMMC7721 cells [1] = experiment: In vitro migration assay (transwell); assay type: cell-based; details: SMMC7721 cells treated 24 h with 2.5 µg mL^−1 DOX/well, then 24 h transwell incubation, crystal violet
Procedure: Microscopy images of b) migration and c) invasion and e,f) quantitative analysis of SMMC7721 cells that passed through the membrane. […] Cells without treatments were used as control.
Then, 500 µL of media were added to the lower chamber as a chemoattractant. […] Cells that got through the membrane and were located on the lower surface were fixed using 4% paraformaldehyde, stained with crystal violet, and quantified with a microplate reader (Leica, Germany).

SMMC7721 cells [2] = experiment: MTT cell toxicity assay; assay type: cell-based; details: 24 h incubation, mean ± SD (n = 6)
Procedure: (§1) Data are given as the mean ± SD (n = 6).
Cell Toxicity Assay: Cytotoxicity in SMMC7221 cells was quantified using an MTT assay. Cells were incubated in Dulbecco's modified Eagle medium (DMEM) medium containing 10% fetal calf serum at 37 °C in an atmosphere of 5% CO2 in air. For the cytotoxicity assay, SMMC7721 cells were precultured in 96‐well cell culture plates at a density of 1.0 × 10^5 cells per well in 100 µL of medium and grown overnight.

[3] = tested on: SMMC7721 pulmonary metastasis; experiment: SMMC7721 pulmonary metastatic mouse model; assay type: in vivo; details: SMMC7721 cells injected through the tail vein into nude mice, day 21, compared with saline/control group, n = 6
Procedure: The antimetastatic effects were evaluated by determining the number of metastatic nodules and the degree of H&E staining in the lung tissues.
as §1
Then, mice were sacrificed and photographed, and the primary tumors and the lungs were striped, and then washed with cold PBS. […] For pulmonary metastatic assays, SMMC7721 cells were trypsinized, suspended in complete medium at a density of 1 × 10^7 cells mL^−1, and then immediately intravenously injected into the nude mice through the tail vein. Images of metastatic nodules on the lungs were obtained with a camera and nodules were counted; histological sections of lungs were stained with H&E for the histopathological examination.

[4] = rat, in vivo
Procedure: The dynamic behavior of the nanofiber was monitored at predetermined intervals after injection by liquid chromatography‐tandem mass spectrometry (LC/MS/MS).
The rats were anaesthetized with ether. A heparinized capillary was then inserted into eyeground veins to obtain 0.3 mL of blood in a plastic centrifuge tube. Plasma samples were collected by centrifugation at 12 000 rpm for 5 min and then stored immediately at −20 °C until analysis. Next, 300 µL of acetonitrile containing an internal standard (clarithromycin, 20 ng mL^−1) were added to the 100 µL plasma samples to precipitate protein, the mixture was centrifuged at 13 000 rpm for 5 min, and 50 µL of supernatant were assayed by LC/MS/MS.

SMMC7721 tumors = experiment: Inhibition of liver tumor growth in mice bearing SMMC7721 tumors; assay type: in vivo; details: intratumor injection, 5 mg kg^−1 DOX, versus saline and KGFRWR groups
Procedure: At the end of the experiment, tumors were photographed and weighed.
The body weight and tumor volume were recorded and calculated three times a week for three weeks. The tumor length (L), which is the longest diameter of the tumor, and width (W), which is the diameter in the direction perpendicular to the length, were measured using Vernier calipers, and the tumor volume (V) was counted using the following formula: V = LW ^2/2. Then, mice were sacrificed and photographed, and the primary tumors and the lungs were striped, and then washed with cold PBS. Primary tumors were weighed and photographed. Histological sections of the primary tumors were used for the following three purposes: first, the sections were stained with H&E to detect tumor apoptosis and necrosis; second, TUNEL staining was used to detect DNA fragmentation in the nucleus of late apoptotic cells in the tissue; and third, sections were incubated with an anticaspase‐3 rabbit antibody (1:200 dilution) followed by a horseradish peroxidase‐labeled antirabbit immunoglobulins (Abcam, UK) for color development and then counterstained with hematoxylin.

MMP-2 = biological target: T1, MMP-2 (Homo sapiens, UniProt P08253); experiment: MMP-2 inhibitor screening assay (fluorescent substrate method); assay type: biochemical
T1 sequence (P08253 110-660): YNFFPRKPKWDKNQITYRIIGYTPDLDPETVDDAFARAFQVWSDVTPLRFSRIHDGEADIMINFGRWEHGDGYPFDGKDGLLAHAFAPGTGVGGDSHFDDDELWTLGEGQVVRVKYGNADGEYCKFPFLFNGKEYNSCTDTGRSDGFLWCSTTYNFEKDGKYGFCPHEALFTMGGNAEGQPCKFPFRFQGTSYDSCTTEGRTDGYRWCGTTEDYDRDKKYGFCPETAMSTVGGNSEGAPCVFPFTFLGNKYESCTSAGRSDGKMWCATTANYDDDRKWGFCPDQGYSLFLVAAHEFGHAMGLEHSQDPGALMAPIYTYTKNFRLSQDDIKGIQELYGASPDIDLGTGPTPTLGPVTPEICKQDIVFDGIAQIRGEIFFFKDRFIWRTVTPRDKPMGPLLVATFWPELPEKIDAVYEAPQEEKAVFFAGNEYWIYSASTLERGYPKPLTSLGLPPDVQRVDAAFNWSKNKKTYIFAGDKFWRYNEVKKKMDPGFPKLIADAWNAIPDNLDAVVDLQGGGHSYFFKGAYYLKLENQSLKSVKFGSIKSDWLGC
Procedure: MMP‐2 Inhibitor Screening Assay: The MMP‐2 inhibitory activity of the samples was analyzed using a fluorescent substrate method, as previously described.23 The MMP substrate peptide MOCAC‐Pro‐Leu‐Gly‐Leu‐Dap(Dnp)‐Ala‐Arg‐NH2 was purchased from Sigma. […] The fluorescence intensity was measured at 328 nm for excitation and 393 nm for emission every 15 min for a 2 h period without interrupting the reaction using a fluorescence microplate reader (POLARstar Omega, Germany).

Row | Compound | migration rate compared with control (SMMC7721 cells [1]) | IC50 (SMMC7721 cell growth) (SMMC7721 cells [2]) | number of pulmonary metastatic nodules [3] | T1/2 [4] | T max [4] | tumor growth (in words) (SMMC7721 tumors) | IC50 (MMP-2)
1 | COc1cccc2c1C(=O)c1c(O)c3c(c(O)c1C2=O)C[C@@](O)(C(=O)CO)C[C@@H]3O[C@H]1C[C@H](N)[C@H](O)[C@H](C)O1 [DOX, doxorubicin] | 39.4% | 1.888 µg/mL (≈ 3.47 µM) | distinctly decreased | 6.90 ± 1.20 h | 0.43 ± 0.16 h | inhibited tumor growth | –
2 | KGFRWR-NH2 [KGFRWR] | – | – | – | – | – | – | 14.2 µM
